Measured values: PubChem BioAssay (NCI)
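Following 48 hours of exposure in 96-well plates, responses at five concentrations were used to interpolate endpoints linearly. TGI denotes the concentration required for complete inhibition of growth.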

Legend:
Test in all cases: NCI-60 cell line screen, 48 h
[1] = tested on: 786-0 renal
[2] = tested on: A498 renal
[3] = tested on: A549 NSCLC
[4] = tested on: ACHN renal
[5] = tested on: CCRF-CEM leukemia
[6] = tested on: COLO 205 colon
[7] = tested on: DLD-1 colon
[8] = tested on: DMS 114 small cell lung
[9] = tested on: DMS 273 small cell lung
[10] = tested on: EKVX NSCLC
[11] = tested on: HCC-2998 colon
[12] = tested on: HCT-116 colon
[13] = tested on: HCT-15 colon
[14] = tested on: HL-60(TB) leukemia
[15] = tested on: HOP-18 NSCLC
[16] = tested on: HOP-62 NSCLC
[17] = tested on: HOP-92 NSCLC
[18] = tested on: HT29 colon
[19] = tested on: IGROV1 ovarian
[20] = tested on: K-562 leukemia
[21] = tested on: KM20L2 colon
[22] = tested on: LOX IMVI melanoma
[23] = tested on: LXFL 529 NSCLC
[24] = tested on: M14 melanoma
[25] = tested on: M19-MEL melanoma
[26] = tested on: MALME-3M melanoma
[27] = tested on: MOLT-4 leukemia
[28] = tested on: NCI-H226 lung
[29] = tested on: NCI-H23 lung
[30] = tested on: NCI-H460 lung
[31] = tested on: NCI-H522 lung
[32] = tested on: OVCAR-3 ovarian
[33] = tested on: OVCAR-4 ovarian
[34] = tested on: OVCAR-5 ovarian
[35] = tested on: OVCAR-8 ovarian
[36] = tested on: RPMI-8226 leukemia
[37] = tested on: RXF 393 renal
[38] = tested on: SF-268 CNS
[39] = tested on: SF-295 CNS
[40] = tested on: SF-539 CNS
[41] = tested on: SK-MEL-2 melanoma
[42] = tested on: SK-MEL-28 melanoma
[43] = tested on: SK-MEL-5 melanoma
[44] = tested on: SK-OV-3 ovarian
[45] = tested on: SN12C renal
[46] = tested on: SNB-19 CNS
[47] = tested on: SNB-75 CNS
[48] = tested on: SNB-78 CNS
[49] = tested on: SR leukemia
[50] = tested on: SW-620 colon
[51] = tested on: TK-10 renal
[52] = tested on: U251 CNS
[53] = tested on: UACC-257 melanoma
[54] = tested on: UACC-62 melanoma
[55] = tested on: UO-31 renal
[56] = tested on: XF 498 CNS
[57] = tested on: CAKI-1 renal
[58] = tested on: KM12 colon
[59] = tested on: RXF-631 renal

Cc1ccc(NC(=O)C2C3C=CC(O3)C2C(=O)O)cc1 (stereo not drawn)
TGI [1]: > 100 µM | TGI [2]: > 100 µM | TGI [3]: > 100 µM | TGI [4]: > 100 µM | TGI [5]: > 100 µM | TGI [6]: > 100 µM | TGI [7]: > 100 µM | TGI [8]: > 100 µM | TGI [9]: > 100 µM | TGI [10]: > 100 µM | TGI [11]: > 100 µM | TGI [12]: > 100 µM | TGI [13]: > 100 µM | TGI [14]: > 100 µM | TGI [15]: > 100 µM | TGI [16]: > 100 µM | TGI [17]: > 100 µM | TGI [18]: 39.8 µM | TGI [19]: > 100 µM | TGI [20]: > 100 µM | TGI [21]: > 100 µM | TGI [22]: 47.4 µM | TGI [23]: > 100 µM | TGI [24]: > 100 µM | TGI [25]: > 100 µM | TGI [26]: > 100 µM | TGI [27]: > 100 µM | TGI [28]: > 100 µM | TGI [29]: > 100 µM | TGI [30]: > 100 µM | TGI [31]: > 100 µM | TGI [32]: > 100 µM | TGI [33]: > 100 µM | TGI [34]: > 100 µM | TGI [35]: > 100 µM | TGI [36]: 54.7 µM | TGI [37]: 80.1 µM | TGI [38]: > 100 µM | TGI [39]: > 100 µM | TGI [40]: > 100 µM | TGI [41]: > 100 µM | TGI [42]: > 100 µM | TGI [43]: > 100 µM | TGI [44]: > 100 µM | TGI [45]: > 100 µM | TGI [46]: > 100 µM | TGI [47]: > 100 µM | TGI [48]: > 100 µM | TGI [49]: > 100 µM | TGI [50]: 26.8 µM | TGI [51]: > 100 µM | TGI [52]: > 100 µM | TGI [53]: > 100 µM | TGI [54]: > 100 µM | TGI [55]: > 100 µM | TGI [56]: > 100 µM

NC(=O)N/N=C(\CC1OC(=O)c2ccccc21)c1ccc([N+](=O)[O-])cc1 (stereo not drawn)
TGI [1]: 32 µM | TGI [2]: > 100 µM | TGI [3]: > 100 µM | TGI [4]: > 100 µM | TGI [57]: 71.3 µM | TGI [5]: > 100 µM | TGI [6]: > 100 µM | TGI [7]: 47.9 µM | TGI [9]: 76.1 µM | TGI [10]: > 100 µM | TGI [11]: 32.7 µM | TGI [12]: 74.2 µM | TGI [13]: 59.7 µM | TGI [14]: > 100 µM | TGI [16]: 53.6 µM | TGI [18]: > 100 µM | TGI [19]: 49.8 µM | TGI [58]: 95.9 µM | TGI [21]: 96.2 µM | TGI [22]: 33.9 µM | TGI [23]: > 100 µM | TGI [24]: > 100 µM | TGI [25]: 68.1 µM | TGI [26]: 73.7 µM | TGI [27]: > 100 µM | TGI [30]: > 100 µM | TGI [32]: > 100 µM | TGI [33]: > 100 µM | TGI [36]: > 100 µM | TGI [37]: 28.9 µM | TGI [39]: > 100 µM | TGI [40]: 55 µM | TGI [41]: 35.4 µM | TGI [43]: 47.2 µM | TGI [45]: > 100 µM | TGI [46]: 51.6 µM | TGI [47]: 78.6 µM | TGI [49]: > 100 µM | TGI [50]: > 100 µM | TGI [51]: > 100 µM | TGI [52]: 39.5 µM | TGI [53]: > 100 µM | TGI [54]: 34.8 µM | TGI [55]: > 100 µM | TGI [56]: > 100 µM

COc1cccc(C2=NC(C(C)C)CO2)c1OC (stereo not drawn)
TGI [1]: > 100 µM | TGI [2]: > 100 µM | TGI [3]: > 100 µM | TGI [4]: > 100 µM | TGI [57]: > 100 µM | TGI [5]: > 100 µM | TGI [6]: > 100 µM | TGI [7]: > 100 µM | TGI [8]: > 100 µM | TGI [9]: > 100 µM | TGI [10]: > 100 µM | TGI [11]: > 100 µM | TGI [13]: > 100 µM | TGI [14]: > 100 µM | TGI [16]: > 100 µM | TGI [17]: > 100 µM | TGI [18]: > 100 µM | TGI [19]: > 100 µM | TGI [20]: > 100 µM | TGI [58]: > 100 µM | TGI [21]: > 100 µM | TGI [22]: > 100 µM | TGI [23]: > 100 µM | TGI [24]: > 100 µM | TGI [25]: > 100 µM | TGI [26]: > 100 µM | TGI [27]: > 100 µM | TGI [28]: > 100 µM | TGI [29]: > 100 µM | TGI [30]: > 100 µM | TGI [31]: > 100 µM | TGI [32]: > 100 µM | TGI [33]: > 100 µM | TGI [34]: > 100 µM | TGI [35]: > 100 µM | TGI [36]: > 100 µM | TGI [37]: > 100 µM | TGI [38]: > 100 µM | TGI [39]: > 100 µM | TGI [40]: > 100 µM | TGI [41]: > 100 µM | TGI [42]: > 100 µM | TGI [43]: > 100 µM | TGI [44]: > 100 µM | TGI [45]: > 100 µM | TGI [46]: > 100 µM | TGI [47]: > 100 µM | TGI [48]: > 100 µM | TGI [50]: > 100 µM | TGI [51]: > 100 µM | TGI [53]: > 100 µM | TGI [54]: > 100 µM | TGI [55]: > 100 µM | TGI [56]: > 100 µM

CCOC(=O)NC(=O)c1cn(CCSCCOC(=O)NCCCCCCNC(=O)OCCSCCn2cc(C(=O)NC(=O)OCC)c(=O)n(C)c2=O)c(=O)n(C)c1=O
TGI [1]: 79.8 µM | TGI [3]: > 100 µM | TGI [4]: > 100 µM | TGI [5]: > 100 µM | TGI [6]: > 100 µM | TGI [7]: > 100 µM | TGI [10]: > 100 µM | TGI [11]: > 100 µM | TGI [12]: 52.6 µM | TGI [13]: > 100 µM | TGI [14]: 43 µM | TGI [15]: 1.02 µM | TGI [16]: > 100 µM | TGI [17]: > 100 µM | TGI [18]: > 100 µM | TGI [21]: > 100 µM | TGI [22]: > 100 µM | TGI [23]: > 100 µM | TGI [25]: 51.3 µM | TGI [26]: 72.2 µM | TGI [27]: > 100 µM | TGI [28]: 73.8 µM | TGI [29]: > 100 µM | TGI [30]: > 100 µM | TGI [32]: > 100 µM | TGI [34]: > 100 µM | TGI [35]: 65.9 µM | TGI [36]: 66.8 µM | TGI [37]: > 100 µM | TGI [59]: 64 µM | TGI [38]: > 100 µM | TGI [39]: > 100 µM | TGI [40]: 80.1 µM | TGI [41]: > 100 µM | TGI [42]: > 100 µM | TGI [44]: > 100 µM | TGI [45]: > 100 µM | TGI [46]: > 100 µM | TGI [47]: > 100 µM | TGI [48]: > 100 µM | TGI [49]: > 100 µM | TGI [50]: > 100 µM | TGI [51]: > 100 µM | TGI [52]: 40.3 µM | TGI [53]: > 100 µM | TGI [54]: > 100 µM | TGI [55]: > 100 µM | TGI [56]: 85.4 µM
